Measured values: PMC5983544, “Muscarinic M5 receptors modulate ethanol seeking in rats” (Neuropsychopharmacology, 2018)

Legend:
[1] = system: ethanol-preferring (iP) rats; assay: Ethanol self-administration after bilateral microinjection into dorsomedial (DM) striatum; assay type: in vivo, rat; details: intra-DM striatum
From the text: (§1) Male iP rats (n = 14) were trained to self-administer 10% (v/v) ethanol via lever presses under FR3 operant conditions for approximately 12 weeks, in the presence of a 1-s light conditioned stimulus (CS+) occurring when the ethanol solution was delivered and an olfactory cue (S+ cue; one drop of vanilla essence, placed directly below the ethanol-paired (active) lever), as previously described, followed by surgery and testing. […] Rats were then given 7 days of ethanol self-administration before receiving the alternate treatment in a counterbalanced manner. For full details refer to Supplementary material.
(§2) Microinjections were performed as previously described; for full details see Supplementary material.
There was a main effect of lever (F(1, 15) = 59.4, P < 0.0001) but no effect of treatment (F(1, 15) = 0.22, P = 0.65) (Fig. 5b).

[2] = system: ethanol-preferring (iP) rats; assay: Ethanol self-administration after bilateral microinjection into dorsolateral (DL) striatum; assay type: in vivo, rat; details: intra-DL striatum
From the text: as §1, §2

SMILES	responding for ethanol vs vehicle ([1]; 165 pmol/hemisphere, P = 0.99)	responding for ethanol vs vehicle ([2]; 165 pmol/hemisphere, P = 0.82)	ethanol responding vs vehicle ([1]; 5.53 nmol/hemisphere)	ethanol responding vs vehicle ([2]; 5.53 nmol/side, P = 0.0003)	responding for water vs vehicle ([2]; 5.53 nmol/side, P = 0.96)
CCN(Cc1ccccc1C(F)(F)F)C(=O)C1CCN(S(=O)(=O)c2ccc3[nH]ncc3c2)CC1 [ML380, 1-((1H-indazol-5-yl)sulfoneyl)-N-ethyl-N-(2-(trifluoromethyl)benzyl)piperidine-4-carboxamide]	no effect	no effect	–	–	–
c1cnc2cc3c(cc2n1)[C@@H]1CNC[C@H]3C1 [varenicline]	–	–	did not affect ethanol responding	significantly reduced ethanol responding	no difference
